According to US20060099157A1, “Ether alcohols used as solvents and emulsifiers and dispersions containing said ether alcohols” (IFAC GmbH & Co. KG, priority 2002, published 2006):

Tests used:
[1] = Solution in polyethylene glycol monomethyl ether (7 EO); assay type: physicochemical; settings: dissolved in polyethylene glycol monomethyl ether (7 EO), room temperature, based on the total solution
Text: A solution was accessible which, based on the total solution, comprised 60% by weight of the light protection agent.
The light protection agent 2-hydroxy-4-methoxybenzophenone (benzophenone-3) could be dissolved at room temperature in polyethylene glycol monomethyl ether (7 EO), the fraction of light protection agent in the solution being more than 30% by weight.
2-Hydroxy-4-methoxybenzophenone-5-sulfonic acid could be dissolved in polyethylene glycol monomethyl ether (7 EO), the resulting solution comprising more than 10% by weight of the light protection agent. The per se water-soluble light protection agent could be introduced into an oil phase as polyethylene glycol monomethyl ether (7 EO) solution so that it could be used in this formulation as oil-soluble light protection filter.
(§1) Salicylic acid was dissolved at room temperature in polyethylene glycol monomethyl ether (7 EO). A solution was accessible which comprised more than 10% by weight of salicylic acid in the acid form. The solution could be introduced in any fractions into C12-C15-alcohol benzoate without resulting in precipitation of the salicylic acid.

[2] = Mixing of the ether alcohol solution into C12-C15-alcohol benzoate, stability of the resulting system; assay type: physicochemical; settings: for miscibility of the solution with C12-C15-alcohol benzoate: solution in polyethylene glycol monomethyl ether (7 EO)
Experimental: At room temperature (25° C.), a storage time of more than 7 days was determined without resulting in flocculation or phase separation.
as §1

[3] = cited from earlier work

Compound | fraction of the compound in the accessible solution [1] | storage time without flocculation or phase separation ([2]; 60% strength solution in C12-C15-alcohol benzoate, room temperature (25° C.)) | miscibility of the solution with C12-C15-alcohol benzoate [2] | fraction of light protection agent in solutions hitherto accessible [3]
CCCCC(CC)COC(=O)c1ccc(Nc2nc(Nc3ccc(C(=O)OCC(CC)CCCC)cc3)nc(Nc3ccc(C(=O)OCC(CC)CCCC)cc3)n2)cc1 (centres unmarked) [2,4,6-trianilino-p-(carbo-2′-ethylhexyl-1′-oxy)-1,3,5-triazine] | 60 % by weight | more than 7 days | any mixing ratios | –
COc1cc(O)c(C(=O)c2ccccc2)cc1S(=O)(=O)O [2-Hydroxy-4-methoxybenzophenone-5-sulfonic acid] | more than 10 % by weight | – | – | –
COc1ccc(C(=O)c2ccccc2)c(O)c1 [2-hydroxy-4-methoxybenzophenone] | more than 30 % by weight | – | – | at most 20 % by weight
O=C(O)c1ccccc1O [Salicylic acid, reference compound] | more than 10 % by weight | – | any fractions | –
